Patent US20240101535A1, “DIHYDROISOQUINOLINONE DERIVATIVE AND APPLICATION THEREOF” (ETERN BIOPHARMA (SHANGHAI) CO., LTD., priority 2020, published 2024)

Target: WDR5 protein (22-334aa) with MLL1 polypeptide (3672-3773aa) (Homo sapiens, UniProt P61964)
Assay: WDR5-MLL PPI inhibitory activity test (HTRF)
Assay type: binding
Details: His-tagged WDR5 and biotin-tagged MLL1 polypeptide
Text: Test Example 1: WDR5-MLL PPI Inhibitory Activity Test
Effect of the compounds on WDR5 (WD Repeat Domain 5) and MLL1 (mixed-lineage leukemia 1) peptides at molecular level.
The effect of the compound on the interaction of WDR5 protein (22-334aa) with MLL1 polypeptide (3672-3773aa) was detected by HTRF (Homogeneous Time-Resolved Fluorescence) technology. When the N-terminal His-tagged WDR5 recognized by the Anti-6His-Eu cryptate donor interacts with the biotin-tagged MLL1 polypeptide recognized by the streptavidin-APC receptor, the donor and acceptor are pulled close enough to produce fluorescence resonance energy transfer (FRET). […] Therefore, the decrease in FRET signal can reflect the compound's inhibition on the interaction of WDR5 with MLL1 polypeptide.
The compound to be tested was diluted 3-fold with DMSO. […] Then the compound was diluted with reaction buffer (25 mM HEPES pH=7.5, 100 mM NaCl, 0.05% Tween 20) to control the final concentration of DMSO at 0.5%. In a 384-well plate, 1 μL of compound and 3 μL of 42 nM WDR5 protein were added, centrifuged at 1000 rpm for 1 min, incubated at room temperature for 60 min, followed by adding 3 μL of 333 nM MLL1 polypeptide with incubation at room temperature for 10 min, and followed by adding 3 μL of a mixed liquid of Anti-6His-Eu cryptate and streptavidin-APC with centrifugation at 1000 rpm for 1 mi and incubation at room temperature protected from light for 60 min, using a multifunction microplate reader (EnVision®2105) to read the signal. The following controls were set up per plate: control group (1 μL with 5% DMSO reaction buffer, 3 μL of 42 nM WDR5, 3 μL of MLL1 polypeptide, 3 μL of Anti-6His-Eu cryptate and streptavidin-APC). Blank group (1 μL reaction buffer with 5% DMSO, 3 μL reaction buffer, 3 μL MLL1 polypeptide, 3 μL Anti-6His-Eu cryptate and streptavidin-APC). The test data was calculated according to the signal ratio of two beams of fluorescence at different wavelengths: (665 nm signal/620 nm signal)*10000. […] The IC50 value was calculated using XLfit software.

IC50 [nM] | Structure (SMILES)
< 20 | CCOc1cc([C@H](C)N2CC3(CC3)c3c(CN4CCN(CC(F)(F)F)CC4)cc(Cn4ccnc4NC)cc3C2=O)ncc1F [Compound 62]
< 20 | CCOc1cc([C@H](C)N2CC3(CCC3)c3c(CN4CCC(NC)CC4)cc(Cn4ccnc4NC)cc3C2=O)ncc1C#N [Compound 75, (S)-4-ethoxy-6-(1-(7′-((2-(methylamino)-1H-imidazol-1-yl)methyl)-5′-((4-(methylamino)piperidin-1-yl)methyl)-1′-one-1′H-spiro[cyclobutan-1,4′-isoquinoline]-2′(3′H)-yl)ethyl)nicotinonitrile]
< 20 | CCOc1cc(CN2CC3(CCC3)c3c(CN(C)C)cc(Cn4ccnc4C)cc3C2=O)ncc1C#N [Compound 117, 6-((5′-((dimethylamino)methyl)-7′-((2-methyl-1H-imidazol-1-yl)methyl)-1′-oxo-1′H-spiro[cyclobutan-1,4′-isoquinoline]-2′-3′H-yl)methyl)-4-ethoxynicotinonitrile]
20 to 100 | CCOc1cc(C(C)N2CC3(CCC3)c3c(CN(C)C)cc(Cn4ccc5ncccc54)cc3C2=O)ncc1C#N (centres unmarked) [Compound 108, 6-(1-(7′-((1Hpyrrol[3,2-b]pyridine-1-yl)methyl)-5′-((dimethylamino)methyl)-1′-oxo-1′H-spiro[cyclobutan-1,4′-isoquinoline]-2′(3′H)-yl)ethyl)-4-ethoxynicotinonitrile]
20 to 100 | CNc1nccn1Cc1cc(CN(C)C)c2c(c1)C(=O)N(C(C)c1ccc(O)c(O)c1)CC21CCC1 (centres unmarked) [Compound 115, 2′-(1-(3,4-dihydroxylphenyl)ethyl)-5′-((dimethylamino)methyl)-7′-((2-(methylamino)-1H-imidazol-1-yl)methyl)-2′,3′-dihydro-1′H-spiro[cyclobutan-1,4′-isoquinoline]-1′-one]
< 20 | CCOc1cccc2c1CCC2N1CC2(CCC2)c2c(CN(C)C)cc(Cn3ccnc3NC)cc2C1=O (centres unmarked) [Compound 113, 5′-((dimethylamino)methyl)-2′-(4-ethoxy-2,3-dihydro-1H-indene-1-yl)-7′-((2-(methylamino)-1H-imidazol-1-yl)methyl)-2′,3′-dihydro-1′H-spiro[cyclobutan-1,4′-isoquinoline]-1′-one]
< 20 | CCOc1cc([C@H](C)N2CC3(CCC3)c3c(CN4CCC(N(C)C)CC4)cc(Cn4ccnc4NC)cc3C2=O)ncc1C#N [Compound 74]
< 20 | CCOc1cc([C@H](C)N2CC3(CC3)c3c(CN4CC(N(C)C)C4)cc(Cn4ccnc4NC)cc3C2=O)ncc1F [Compound 58, (S)-5′-((3-(dimethylamino)azetidinyl-1-yl)methyl)-2′-(1-(4-ethoxy-5-fluoropyridine-2-yl)ethyl)-7′-((2-(methylamino)-1H-imidazol-1-yl)methyl)-2′,3′-dihydro-1′H-spiro[cyclopropan-1,4′-isoquinoline]-1′-one]
< 20 | CCOc1cc([C@H](C)N2CC3(CC3)c3c(CN(C)C)cc(Cn4cnc5c4CCCC5)cc3C2=O)ncc1F [Compound 114, (S)-5′-((dimethylamino)methyl)-2′-(1-(4-ethoxy-5-fluoropyridine-2-yl)ethyl)-7′-((4,5,6,7-tetrahydro-1H-benzo[d]imidazol-1-yl)methyl)-2′,3′-dihydro-1′H-spiro[cyclopropan-1,4′-isoquinoline]-1′-one]
< 20 | CCOc1cc(CN2CC3(CC3)c3c(CN4CCN(C)CC4)cc(Cn4ccnc4NC)cc3C2=O)ncc1F [Compound 69, 2′-((4-ethoxy-5-fluoropyridine-2-yl)methyl)-7′-((2-(methylamino)-1H-imidazol-1-yl)methyl)-5′-((4-methylpiperazin-1-yl)methyl)-2′,3′-dihydro-1′H-spiro[cyclopropan-1,4′-isoquinoline]-1′-one]
< 20 | CCOc1cc([C@H](C)N2CC3(CC3)c3c(CN4CCN(CCC(F)(F)F)CC4)cc(Cn4ccnc4NC)cc3C2=O)ncc1F [Compound 65]
< 20 | CCOc1cc([C@@H](C)N2C[C@@]3(CC3(F)F)c3c(CN(C)C)cc(Cn4ccnc4NC)cc3C2=O)ncc1F [Compound 90, (R)-5′-((dimethylamino)methyl)-2′-((R)-1-(4-ethoxy-5-fluoropyridine-2-yl)ethyl)-2,2-difluoro-7′-((2-(methylamino)-1H imidazol-1-yl)methyl)-2′, 3′-dihydro-1′H-spiro[cyclopropan-1,4′-isoquinoline]-1′-one]
< 20 | CCOc1cc([C@H](C)N2CC3(CC3)c3c(CN4CCCCC4)cc(Cn4ccnc4NC)cc3C2=O)ncc1F [Compound 7]
20 to 100 | CCOc1cc(CN2CC3(CC3)c3c(CN(C)C)cc(Cn4ccnc4NC)cc3C2=O)ncc1F [Compound 76, 5′-((dimethylamino)methyl)-2′-((4-ethoxy-5-fluoropyridine-2-yl)methyl)-7′-((2-(methylamino)-1H-imidazol-1-yl)methyl)-2′,3′-dihydro-1′H-spiro[cyclopropan-1,4′-isoquinoline]-1′-one]
< 20 | CCOc1cc([C@H](C)N2CC3(CCC3)c3c(CN4CCN(C(C)=O)CC4)cc(Cn4ccnc4NC)cc3C2=O)ncc1F [Compound 86, (S)-5′-((4-acetylpiperazin-1-yl)methyl)-2′-(1-(4-ethoxy-5-fluoropyridine-2-yl)ethyl)-7′-((2-(methylamino)-1H-imidazol-1-yl)methyl)-2′,3′-dihydro-1′H-spiro[cyclobutyl-1,4′-isoquinoline]-1′-one]
< 20 | CCOc1cc([C@H](C)N2CC3(CC3)c3c(CN(C)CC#N)cc(Cn4ccnc4NC)cc3C2=O)ncc1F [Compound 43]
20 to 100 | CCOc1cc(C(C)N2CC3(CCC3)c3c(CN4CC5(CNC5)C4)cc(Cn4ccnc4NC)cc3C2=O)ncc1C#N (centres unmarked) [Compound 102]
< 20 | CCOc1cc([C@H](C)N2CC3(CCC3)c3c(CN4CCNCC4)cc(Cn4ccnc4NC)cc3C2=O)ncc1C#N [Compound 49, (S)-4-ethoxy-6-(1-(7′-((2-(methylamino)-1H-imidazol-1-yl)methyl)-1′-one-5′-(piperazin-1-ylmethyl)-1′H-spiro[cyclobutan-1,4′-isoquinoline]-2′(3′H)-yl)ethyl)nicotinonitrile]
< 20 | CCOc1cc([C@H](C)N2C[C@@]3(CC3(F)F)c3c(CN(C)C)cc(Cn4ccnc4NC)cc3C2=O)ncc1F (stereo in doubt) [Compound 97, (R)-5′-((dimethylamino)methyl)-2′-((S)-1-(4-ethoxy-5-fluoropyridine-2-yl)ethyl)-2,2-difluoro-7′-((2-(methylamino)-1H imidazol-1-yl)methyl)-2′, 3′-dihydro-1′H-spiro[cyclopropan-1,4′-isoquinoline]-1′-one]
< 20 | CCOc1cc([C@H](C)N2CC3(CC3)c3c(C(=O)N(C)C)cc(Cn4ccnc4NC)cc3C2=O)ncc1F [Compound 110]
